Assay results as given in US10329304B2, “Compounds and methods for inhibition of hedgehog signaling and phosphodiesterase” (Vanderbilt University, priority 2014, dated 2019).
Like-named read-outs stand apart in the source and are kept apart here.

Assays:
[1] = system: Hedgehog signaling (TM3-Gli-Luc); assay: TM3-Gli-Luc luciferase reporter assay stimulated with 20 nM SAG; format: cell-based
Experimental: TM3-Gli-Luc cells were maintained on sterile 0.1% gelatin (from porcine skin, Type A, prepared in MilliQ water, autoclaved, then sterile-filtered) in 1:1 Dulbecco's Modified Eagle Medium (DMEM)/F12 supplemented with 5% horse serum, 2.5% fetal bovine serum (FBS), and 15 mM HEPES, hereafter referred to as TM3 Culture Medium. For small molecule evaluation, TM3-Gli-Luc cells were assayed on 0.1% gelatin in DMEM/F12 supplemented with 2.5% FBS and 15 mM HEPES, hereafter referred to as TM3Luc Medium. Sufu^−/− cells were maintained in DMEM supplemented with 4.5 g/L D-glucose, L-glutamine, 25 mM HEPES, and 10% FBS, hereafter referred to as D10 FBS. For small molecule evaluation, Sufu^−/− cells were assayed in DMEM supplemented with 4.5 g/L D-glucose, L-glutamine, 25 mM HEPES, and 0.5% FBS, hereafter referred to as D0.5 FBS. All cells were cultured at 37° C. with a 5% CO2 atmosphere.
On the day of cell plating, 96-well plates were coated with 50 μL/well of sterile 0.1% gelatin for 5 minutes then aspirated and replaced with 50 μL/well of TM3 Culture Medium. TM3-Gli-Luc cells were seeded at a density of 5,000 cells/well in TM3 Culture Medium and incubated for 24 hours. A master mix of 20 nM SAG in TM3Luc Medium was prepared, and small molecule solutions were prepared by adding the desired amount of compound from 10 mM DMSO stock to TM3Luc Medium containing 20 nM SAG. Negative control was prepared by adding an equi-volume amount of DMSO as compared to small molecule treated conditions to TM3Luc Medium not containing SAG. Cell plating medium was aspirated and replaced with 100 μL/well of prepared small molecule-containing media, and plates were incubated for 48 hours before proceeding to luciferase activity and cell viability reading.
TM3Luc Medium from compound treated plates was aspirated and replaced with 82 μL/well of Glo Lysis Buffer (Promega, Madison, Wis., USA), and plates were shaken at 300 rpm and room temperature for 12 minutes. Lysate was split between two white 96-well plates, 45 μL/well and 25 μL/well for luciferase reading and cell viability respectively. For luciferase activity monitoring, 45 μL/well of Steady Glo (Promega, Madison, Wis., USA) was added to 45 μL/well of cell lysate, incubated at room temperature for 5 minutes, then luminescence was measured on a Turner Biosystems Modulus Microplate Reader (Sunnyvale, Calif., USA) with an integration time of 0.5 seconds. For cell viability measurement, 25 μL/well of Cell Titer Glo (Promega, Madison, Wis., USA) (prepared by 1:10 dilution with Glo Lysis Buffer) was added to 25 μL/well of cell lysate, incubated at room temperature for 5 minutes, then luminescence was measured as above.
Luciferase activity data (Steady Glo) was divided by corresponding cell viability data (Cell Titer Glo) to arrive at a live cell number-normalized luciferase activity reading. The average of negative control data (DMSO treated) was subtracted from all wells, and percent activity was calculated by dividing all wells by the positive control (SAG treated) average. […] At least two independent assays tested on separate days were averaged to provide EC50±standard error of the mean.

[2] = Lipophilic efficiency (LipE = pEC50 − cLogP) and cLogP
Experimental: Therefore, we prioritized phenotypic analog evaluation in the Gli-responsive luciferase reporter line TM3-Gli-Luc stimulated with 20 nM Smo agonist (SAG) while concurrently monitoring non-specific cellular toxicity. Additionally, lipophilic efficiency (LipE), a concurrent readout of a compound's potency (pEC50) and lipophilicity (cLogP) derived by subtracting the latter from the former, was utilized to optimize solubility properties (Table 12B), allowing for straightforward tracking of compounds with improvements in both parameters.

[3] = system: Hedgehog signaling (Gli-Luc reporter); assay: Hh Gli-Luciferase reporter assay in Shh-Light2 cells; format: cell-based, mouse; conditions: for EC50: Mus musculus, Shh Light2
Experimental: For Hh signaling assays, Shh-Light2 cells stably transfected with Gli-Luciferase reporter construct were used along with Shh-conditioned media, as previously described^7. Alternatively, 3 μM purmorphamine or 20 nM Smoothened agonist (SAG) (Santa Cruz Biotechnology, Santa Cruz, Calif.) was used to induce Hh signaling. Reporter cells were seeded in 96-well plates and incubated overnight with the various concentrations of eggmanone and Shh-conditioned media. To assess the effects of overexpression of Gli-2, PDE4D3 and DN-PDE4D3 on Hh signaling, mammalian expression vectors containing these constructs were transfected into Shh-Light2 cells in 96-well plates using Fugene6 (Roche), according to manufacturer's instructions. The transfected or Shh-stimulated cells were incubated overnight with the various concentrations of compound. The cells were then lysed, and cell extracts were subjected to Steady-Glo luciferase assay (Promega) according to manufacturer's instructions. The results were normalized to cell titer, as determined using Cell Titer-Glo luminescence assay (Promega).

PDE4D = PDE4D (Homo sapiens, UniProt Q08499); assay: PDE4 inhibition assay (PDE4D IC50); format: biochemical; conditions: Table 8; read-out: PDE4 Inhibition Assay (IC50)
Chain of PDE4D (Q08499 1-673 isoform Q08499-2): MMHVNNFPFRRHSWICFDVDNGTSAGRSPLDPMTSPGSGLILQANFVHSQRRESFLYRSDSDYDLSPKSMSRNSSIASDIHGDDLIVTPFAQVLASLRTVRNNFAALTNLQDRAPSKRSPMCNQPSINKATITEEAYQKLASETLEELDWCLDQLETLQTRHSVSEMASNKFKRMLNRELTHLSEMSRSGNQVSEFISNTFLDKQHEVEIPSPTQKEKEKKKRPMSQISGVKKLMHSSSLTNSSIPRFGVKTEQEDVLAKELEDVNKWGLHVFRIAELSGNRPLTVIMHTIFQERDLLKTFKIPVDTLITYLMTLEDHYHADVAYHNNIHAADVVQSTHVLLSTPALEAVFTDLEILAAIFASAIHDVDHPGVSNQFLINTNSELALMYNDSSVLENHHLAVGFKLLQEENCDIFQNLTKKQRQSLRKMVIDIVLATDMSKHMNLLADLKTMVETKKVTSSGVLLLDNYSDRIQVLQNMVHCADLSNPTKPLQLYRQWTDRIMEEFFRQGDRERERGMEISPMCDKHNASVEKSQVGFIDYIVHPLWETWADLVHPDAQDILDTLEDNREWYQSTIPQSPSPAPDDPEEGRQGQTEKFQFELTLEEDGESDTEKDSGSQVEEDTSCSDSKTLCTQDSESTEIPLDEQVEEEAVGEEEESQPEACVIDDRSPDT
Experimental: (§1) In vitro PDE profiling and dose-response assays were performed by BPS Biosciences (San Diego, Calif.). Kinetic Mechanism of inhibition studies were conducted by Millipore (St. Louis, Mo.). In brief, the PDE assay measures fluorescent polarization of FAM-AMP as FAM-cAMP is converted to FAM-AMP by PDE), the binding agent.
(§2) A series of dilutions of the test compound were prepared with 10% DMSO in assay buffer and 5 μl of the dilution was added to a 50 μl reaction so that the final concentration of DMSO is 1% in all of reactions. All of the PDE enzymatic reactions were conducted in duplicate at room temperature for 60 minutes in a 50 μl mixture containing PDE assay buffer (10 mM Tris-HCl, pH7.4, 10 mM MaCl2, 0.05% Tween 20), 100 nM FAM-cAMP, a PDE enzyme and a test compound.
(§3) After the enzymatic reaction, 100 μl of a binding solution (1:100 dilution of the binding agent, which contains the nano beads that recognize FAM-AMP, with the binding agent diluent) was added to each reaction and the reaction was performed at room temperature for 60 minutes. Fluorescence intensity was measured at an excitation of 485 nm and an emission of 528 nm using a Tecan Infinite M1000 microplate reader. Assays done by Millipore were conducted similarly with changes noted below:
Hedgehog signaling inhibition and PDE4 inhibition of various compounds disclosed herein was assayed as described herein above.

PDE4D3 = molecular target: T1, PDE4D3 (Homo sapiens, UniProt Q08499); assay: In vitro PDE assay; format: biochemical
T1 construct: purchased BPS Biosciences (San Diego, Calif.); kinetic studies by Millipore (St. Louis, Mo.)
T1 sequence (Q08499 1-673 isoform Q08499-2): as above
Experimental: as §1, §2
as §3, with “below: […]” for “below:”

Gli1 mRNA = assay: Hh % Inh.: SAG-induced Gli1 expression in C3H10T½ cells (qPCR); format: cell-based; conditions: Mus musculus, C3H 10T1/2, SAG-induced (100 nM), 24 hours
Experimental: Compounds are dosed from 10 mM DMSO stock solutions, and mRNA is isolated after 24 hours of compound treatment. mRNA is reverse transcribed to produce cDNA which is quantified by quantitative polymerase chain reaction (qPCR) in triplicate and levels are normalized to GAPDH levels. Data is presented as percent inhibition compared to positive control (SAG).

[4] = 20 nM SAG, mean ± standard error of the mean, read-out: TM3-Gli-Luc EC50
[5] = Calculated as pEC50 - cLogP, Molinspiration Cheminformatics
[6] = TM3-Gli-Luc reporter line stimulated with 20 nM SAG, mean ± SEM, Table 13, read-out: TM3-Gli-Luc EC50
[7] = calculated as pEC50 - cLogP (Molinspiration Cheminformatics), Table 13
[8] = Table 8, read-out: Hh Inhibition Assay (EC50)
[9] = Table 9B, read-out: Shh Light2 Luc EC50

SMILES | EC50 [3, 8] | IC50 (PDE4D) | other results
C=C(C)Cn1c(SCC(=O)c2cccs2)nc2sc3c(c2c1=O)CCNC3 [Formula 10a] |  |  | EC50 [1, 4]: 6400 ± 330 nM; LipE [2, 5]: 1.45
O=C(CSc1nccc(=O)n1C1CC1)c1ccccc1 [Formula 14c] |  |  | Hh inhibitory activity / potency in words ([1]; 20 nM SAG): potency improvements over EGM1; EC50 [1, 6]: 1160 ± 390 nM; LipE [2, 7]: 2.46
C=C(C)Cn1c(SCC(=O)c2cccs2)nccc1=O [Formula 19a] |  |  | EC50 [1, 6]: 931 ± 110 nM; LipE [2, 7]: 2.06
C=C(C)Cn1c(SCC(=O)c2cccs2)nc2sc3c(c2c1=O)CCCC3 [Formula (1), 3-(2-methylallyl)-2-((2-oxo-2-(thiophen-2-yl)ethyl)thio)-5,6,7,8-tetrahydrobenzo[4,5]thieno[2,3-d]pyrimidine-4(3H)-one] | 1.5 µM | 0.893 µM | 
C=CCn1c(SCC(=O)c2cccs2)nc2sc3c(c2c1=O)CCCC3 [Formula (2)] |  | > 100 µM | Hh Inhibition Assay (EC50, μM) ([3]; Table 8): Inactive
C=C(C)Cn1c(SCC(=O)c2ccccc2)nc2sc3c(c2c1=O)CCCC3 [Formula (3)] | 3 µM | 1.27 µM | 
C=C(C)Cn1c(SCC(=O)N2CCCC[C@H]2C)nc2sc3c(c2c1=O)CCCC3 [Formula (5)] | 2.5 µM | 1.2 µM | 
C=CCn1c(SCC(=O)N2CCCC[C@H]2C)nc2sc3c(c2c1=O)CCCC3 [Formula (6)] | 5 µM | 7.6 µM | 
C=C(C)Cn1c(SCC(=O)N2CCN(C)CC2)nc2sc3c(c2c1=O)CCCC3 [Formula (7)] | 20 µM | 8.5 µM | 
C=CCn1c(SCC(=O)N2CCN(C)CC2)nc2sc3c(c2c1=O)CCCC3 [Formula (8)] | 10 µM | 2.08 µM | 
C=C(C)Cn1c(SCC(=O)c2nccs2)nc2sc3c(c2c1=O)CCCC3 [Formula (9)] | 7.5 µM | 6.4 µM | 
C=CCn1c(SCC(=O)c2nccs2)nc2sc3c(c2c1=O)CCCC3 [Formula (10)] |  | 27 µM | Hh Inhibition Assay (EC50, μM) ([3]; Table 8): Inactive
C=C(C)Cn1c(SCC(=O)c2ccncc2)nc2sc3c(c2c1=O)CCCC3 [Formula (11)] | 10 µM | 16 µM | 
C=CCn1c(SCC(=O)c2ccncc2)nc2sc3c(c2c1=O)CCCC3 [Formula (12)] | 15 µM | 8.2 µM | 
C=C(C)Cn1c(SCC(=O)N2CCOCC2)nc2sc3c(c2c1=O)CCCC3 [Formula (13)] | 5 to 20 µM | 3.9 µM | 
C=CCn1c(SCC(=O)N2CCOCC2)nc2sc3c(c2c1=O)CCCC3 [Formula (14)] |  | > 100 µM | Hh Inhibition Assay (EC50, μM) ([3]; Table 8): Inactive
C=C(C)Cn1c(SCC(=O)c2ccccn2)nc2sc3c(c2c1=O)CCCC3 [Formula (15)] | 15 µM | 23 µM | 
C=CCn1c(SCC(=O)c2ccccn2)nc2sc3c(c2c1=O)CCCC3 [Formula (16)] | 20 µM | 25 µM | 
C=C(C)Cn1c(SCC(=O)N2Cc3ccccc3C2)nc2sc3c(c2c1=O)CCCC3 [Formula (17)] |  | 46 µM | Hh Inhibition Assay (EC50, μM) ([3]; Table 8): Inactive
C=CCn1c(SCC(=O)N2Cc3ccccc3C2)nc2sc3c(c2c1=O)CCCC3 [Formula (18)] |  | > 100 µM | Hh Inhibition Assay (EC50, μM) ([3]; Table 8): Inactive
C=C(C)Cn1c(SCC(=O)c2ccc(-c3ccccc3)cc2)nc2sc3c(c2c1=O)CCCC3 [Formula (19)] |  | > 100 µM | Hh Inhibition Assay (EC50, μM) ([3]; Table 8): Inactive
CCn1c(SCC(=O)c2ccc(Cl)cc2)nc2sc3c(c2c1=O)CCC3 [HI113] |  |  | EC50 [3, 9]: > 20 µM; IC50 (PDE4D3; Table 9B): 4.1 µM
C=CCn1c(SCC(=O)c2ccc(OC)cc2)nc2sc3c(c2c1=O)CCCC3 [HI798] |  |  | EC50 [3, 9]: > 10 µM; IC50 (PDE4D3; Table 9B): > 100 µM
C=C(C)Cn1c(SCC(=O)c2cccs2)nc2sc3ccccc3c2c1=O [JEH-4-006] |  |  | IC50 (PDE4D3; Table 9A): > 100 µM; inhibition at 1 µM (Gli1 mRNA; 1 pM [sic], read-out: C3H10T1/2 qPCR, Gh1 mRNA % Inh., 1 pM): 14.3%; inhibition at 10 µM (Gli1 mRNA; 10 pM [sic], read-out: C3H10T1/2 qPCR, Gh1 mRNA % Inh., 10 pM): 79.3%; EC50 (Gli1 mRNA; read-out: C3H10T1/2 qPCR, Gh1 mRNA EC50): 4.3 µM; EC50 ([1]; Table 9A, read-out: TM3 G8 Luciferase EC 50): > 50000 nM
CS(=O)(=O)c1ccc(C(=O)Nc2ccc(Cl)c(-c3ccccn3)c2)c(Cl)c1 [Vismodegib, reference compound] |  |  | Hh inhibitory activity / potency in words ([1]; 20 nM SAG): displayed expected potency; Hh inhibitory activity / potency in words ([1]; 20 nM SAG, listed as 1): low-nanomolar; EC50 [1, 4]: 13 ± 4 nM; LipE [2, 5]: 4.33
